Laboratory results taken from PubChem BioAssay AID493112 (Sanford-Burnham Center for Chemical Genomics, 2011).
Calls of active or inactive are those of the source.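 Rule for the calls: active = mean half-maximal activation concentration below 100 µM; inactive = the rest.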

Target: Alkaline phosphatase, tissue-nonspecific isozyme (Homo sapiens) (UniProt P05186)
Experiment: effect of analogs on TNAP activity, SAR follow-up, selectivity assay for human IAP activator project, biochemical, human TNAP (AID 493112)
Conditions: purified TNAP, CDP-Star luminescence, 30 min

Sequence of Alkaline phosphatase, tissue-nonspecific isozyme (Homo sapiens) (P05186 whole entry, looked up): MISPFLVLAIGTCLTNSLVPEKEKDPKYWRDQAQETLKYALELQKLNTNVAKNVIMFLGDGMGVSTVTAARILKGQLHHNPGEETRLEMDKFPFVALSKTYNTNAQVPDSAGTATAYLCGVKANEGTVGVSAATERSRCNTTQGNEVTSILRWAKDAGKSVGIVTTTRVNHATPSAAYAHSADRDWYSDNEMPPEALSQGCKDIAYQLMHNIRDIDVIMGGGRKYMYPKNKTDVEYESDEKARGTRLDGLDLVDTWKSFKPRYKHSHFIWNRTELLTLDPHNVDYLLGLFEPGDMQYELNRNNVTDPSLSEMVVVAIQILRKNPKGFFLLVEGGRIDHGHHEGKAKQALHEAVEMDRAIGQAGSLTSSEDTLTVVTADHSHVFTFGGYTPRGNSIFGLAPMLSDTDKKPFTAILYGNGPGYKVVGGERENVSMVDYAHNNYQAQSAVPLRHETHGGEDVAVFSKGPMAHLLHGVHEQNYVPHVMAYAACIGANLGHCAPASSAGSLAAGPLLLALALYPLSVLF

IC50 (inhibition of TNAP activity) | Compound
> 100 µM (inactive) | CC(=NNC(=O)C(=O)NN=C(C)c1cccc(O)c1)c1cccc(O)c1
10.9 µM | COc1cc(OC)cc(C(=O)NNC(=O)c2nn(C)c(=O)c3ccccc23)c1
> 100 µM (inactive) | COC(=O)c1ccc(/C=N/NC(=O)C(=O)N/N=C/c2ccc(C(=O)OC)cc2)cc1
> 100 µM (inactive) | COc1ccc(-c2cc(C(=O)NN=Cc3c(O)ccc4ccccc34)[nH]n2)cc1
> 100 µM (inactive) | O=C(NN=Cc1c(O)ccc2ccccc12)c1[nH]ncc1Br
> 100 µM (inactive) | COc1cc(/C=N/NC(=O)C(=O)N/N=C/c2ccc(O)c(OC)c2)ccc1O
7.21 µM | OC(c1nc2ccc(F)cc2[nH]1)C(O)c1nc2ccc(F)cc2[nH]1 (stereo not given)
> 100 µM (inactive) | O=C(N/N=C/c1cc(Br)ccc1O)C(=O)N/N=C/c1cc(Br)ccc1O
15.3 µM | O=C(NNC(=S)NC(=O)c1ccccc1[N+](=O)[O-])c1ccccc1O
> 100 µM (inactive) | O=C(N/N=C/c1ccc(O)cc1)C(=O)N/N=C/c1ccc(O)cc1
12.2 µM | CCOc1cccc(C=NNC(=O)c2cc(C3CC3)[nH]n2)c1O
9.52 µM | COc1cccc(C=NNC(=O)c2cc(-c3cccn3C)n[nH]2)c1O
> 100 µM (inactive) | O=C(N/N=C\c1cccc(O)c1)C(=O)N/N=C/c1cccc(O)c1
6.16 µM | Cc1ccc(-c2cc(C(=O)NN=Cc3ccccc3O)n[nH]2)o1
36.1 µM | COc1cccc(C=NNC(=O)C(=O)NN=Cc2cccc(OC)c2OC)c1OC
> 100 µM (inactive) | N#CCOc1ccccc1/C=N/NC(=O)C(=O)N/N=C/c1ccccc1OCC#N
> 100 µM (inactive) | Cc1cc(C(=O)NN=Cc2cc(Cl)cc([N+](=O)[O-])c2O)n[nH]1
7.22 µM | Cc1cc(C(=O)N/N=C\c2cc(C(C)(C)C)ccc2O)n[nH]1
> 100 µM (inactive) | Cc1cc(C(=O)NN=Cc2cccc([N+](=O)[O-])c2O)n[nH]1
> 100 µM (inactive) | COc1cccc(C=NNC(=O)C(=O)NN=Cc2cccc(OC)c2O)c1O
> 100 µM (inactive) | O=C(N/N=C/c1c(O)ccc2ccccc12)c1cc(-c2cccs2)[nH]n1
> 100 µM (inactive) | CC1C(=O)NN=C1C(=O)NN=Cc1ccc(O)cc1O (stereo not given)
54.3 µM | CC(C)Oc1ccccc1/C=N/NC(=O)C(=O)N/N=C/c1ccccc1OC(C)C
> 100 µM (inactive) | COc1cc(/C=N/NC(=O)C(=O)N/N=C/c2cc(OC)c(OC)c(OC)c2)cc(OC)c1OC
8.35 µM | Cc1cc(C(=O)N/N=C/c2cc(Br)ccc2O)n[nH]1
> 100 µM (inactive) | O=C(CCN1C(=O)/C(=C/c2ccccc2Cl)SC1=S)NNC(=O)c1ccccc1O
> 100 µM (inactive) | O=C(N/N=C\c1ccc2c(c1)OCO2)C(=O)N/N=C/c1ccc2c(c1)OCO2
10.2 µM | CCOc1cccc(C=NNC(=O)c2cc(-c3cccn3C)n[nH]2)c1O

IC50 (inhibition of TNAP activity) | Compound
> 100 µM (inactive) | COc1ccc(-c2csc(Nc3cccc4ccccc34)n2)cc1F
24.5 µM | O=C(NN=Cc1ccccc1)C(=O)NN=Cc1ccccc1
> 100 µM (inactive) | CN(C)c1ccc(/C=N/NC(=O)C(=O)N/N=C/c2ccc(N(C)C)cc2)cc1
10.3 µM | CC(=O)Nc1cccc(C(=O)NNC(=O)c2n[nH]c(=O)c3ccccc23)c1
8.78 µM | C/C(=N\NC(=O)c1[nH]nc2c1CCc1ccccc1-2)c1ccccc1O
9.38 µM | Cn1cccc1-c1cc(C(=O)NN=Cc2cc(Br)ccc2O)[nH]n1
> 100 µM (inactive) | COc1ccc(/C=N/NC(=O)C(=O)N/N=C/c2ccc(OC)c(OC)c2)cc1OC
> 100 µM (inactive) | CC(=O)Nc1ccc(/C=N/NC(=O)C(=O)N/N=C/c2ccc(NC(C)=O)cc2)cc1
4.74 µM | O=C(N/N=C/c1ccccc1O)c1n[nH]c2c1CCC2
8.03 µM | O=C(N/N=C/c1cc(Br)ccc1O)c1cc(C2CC2)[nH]n1
> 100 µM (inactive) | O=C(NN=Cc1ccc(O)cc1O)C(=O)NN=Cc1ccc(O)cc1O
> 100 µM (inactive) | O=C(N/N=C/c1ccc2c(c1)OCO2)C(=O)N/N=C/c1ccc2c(c1)OCO2
> 100 µM (inactive) | C/C(=N\NC(=O)c1cc(C)[nH]n1)c1ccc2ccccc2c1O
12.1 µM | COc1cccc(C=NNC(=O)C2=NNC(=O)C2C)c1O (stereo not given)
7.51 µM | O=C(N/N=C/c1ccccc1O)c1cc(C2CC2)[nH]n1
15.6 µM | Cc1ccc(O)c(C=NNC(=O)c2[nH]ncc2Br)c1
10.9 µM | COc1cccc(C=NNC(=O)c2[nH]nc3c2CCc2ccccc2-3)c1O
36.2 µM | O=C(N/N=C/c1ccccc1C(=O)O)C(=O)N/N=C/c1ccccc1C(=O)O
> 100 µM (inactive) | CCCCOc1ccc(/C=N/NC(=O)C(=O)N/N=C/c2ccc(OCCCC)cc2)cc1
> 100 µM (inactive) | COc1cc(OC)c(OC)cc1/C=N/NC(=O)C(=O)N/N=C/c1cc(OC)c(OC)cc1OC
> 100 µM (inactive) | COc1cc(/C=N\NC(=O)C(=O)N/N=C/c2cc(OC)c(O)c(OC)c2)cc(OC)c1O
> 100 µM (inactive) | CCOc1cc(/C=N/NC(=O)C(=O)N/N=C/c2ccc(O)c(OCC)c2)ccc1O
> 100 µM (inactive) | O=C(N/N=C/c1c(O)ccc2ccccc12)C(=O)N/N=C/c1c(O)ccc2ccccc12
11.5 µM | O=C(NC(=S)NNC(=O)c1ccccc1O)c1ccc(F)cc1
10.4 µM | CC(C)C(=O)NC(=S)Nc1ccccc1C(=O)Nc1ccccc1
> 100 µM (inactive) | CCN(CC)c1ccc(/C=N/NC(=O)C(=O)N/N=C/c2ccc(N(CC)CC)cc2O)c(O)c1
69.5 µM | COc1ccc(OC)c(/C=N/NC(=O)C(=O)N/N=C/c2cc(OC)ccc2OC)c1
